Experimental data as given in article PMC10891904 (Pharmaceuticals, 2024).
Values belong to the molecule of their own block, whether it stands above or below them.

What was measured:
rabbit 5-LOX = molecular target: T1, rabbit 5-LOX (Oryctolagus cuniculus, UniProt G1SNX0); test: In vitro 5-LOX inhibition assay (enzyme kit); format: biochemical; details: mean of three values
T1 construct: purchased Cayman Chemical 560131
T1 sequence (G1SNX0 1-674): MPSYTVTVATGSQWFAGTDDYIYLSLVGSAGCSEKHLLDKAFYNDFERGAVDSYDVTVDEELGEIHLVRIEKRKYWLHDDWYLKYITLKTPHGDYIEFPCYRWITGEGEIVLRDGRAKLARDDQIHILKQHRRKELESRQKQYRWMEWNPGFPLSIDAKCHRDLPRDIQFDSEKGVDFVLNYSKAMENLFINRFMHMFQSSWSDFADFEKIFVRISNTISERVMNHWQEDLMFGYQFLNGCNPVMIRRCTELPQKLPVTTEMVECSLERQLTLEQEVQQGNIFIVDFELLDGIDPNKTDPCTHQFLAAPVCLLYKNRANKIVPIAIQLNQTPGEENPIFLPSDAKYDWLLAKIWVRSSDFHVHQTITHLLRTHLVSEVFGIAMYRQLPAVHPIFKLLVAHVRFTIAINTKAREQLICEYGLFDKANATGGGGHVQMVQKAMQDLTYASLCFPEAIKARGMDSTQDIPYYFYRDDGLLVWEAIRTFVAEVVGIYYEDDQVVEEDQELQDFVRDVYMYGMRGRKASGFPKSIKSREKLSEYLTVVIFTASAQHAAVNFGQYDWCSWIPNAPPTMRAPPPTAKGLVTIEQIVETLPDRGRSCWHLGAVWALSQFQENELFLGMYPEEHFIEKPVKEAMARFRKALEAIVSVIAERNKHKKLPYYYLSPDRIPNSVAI

[1] = test system: THLE2 (healthy human liver) cells; test: Cell viability, MTT assay, THLE2; format: cell-based
Experimental: (§1) HepG2, MCF7, and THLE2 cells were initially seeded at a density of 1 × 10^4 cells per well (100 μL per well) in DMEM medium. These cultures were then incubated at 37 °C in a 5% CO2 environment for 24 h to attain confluency levels ranging from 70% to 80%. […] The cells were allowed to culture for an additional 24 h.
(§2) After the incubation period, 10 μL of a 12 mM MTT stock solution (5 mg/mL MTT in sterile PBS) was introduced into each well. The plate was incubated for 4 h at 37 °C. Following this, the MTT solution was removed, and the purple formazan crystals that had developed at the well bottoms were dissolved by adding 100 μL of DMSO, allowing for a 20 min incubation. A negative control was included, which involved adding 10 μL of the MTT stock solution to 100 μL of medium alone.
(§3) The absorbance at 570 nm was subsequently measured using an ELISA reader (StatFax-2100, Awareness Technology, Inc., Palm City, FL, USA). […] Sigmoidal and dose-dependent curves were created to visualize the experimental results. These assays were conducted in triplicate and were repeated in three independent experiments.

[2] = test system: HepG2 (human liver cancer) cells; test: Cell viability, MTT assay, HepG2; format: cell-based
Experimental: as §1, §2, §3

human recombinant COX-2 = human recombinant COX-2 (Homo sapiens, UniProt P35354); test: biochemical
Chain of human recombinant COX-2 (P35354 18-604): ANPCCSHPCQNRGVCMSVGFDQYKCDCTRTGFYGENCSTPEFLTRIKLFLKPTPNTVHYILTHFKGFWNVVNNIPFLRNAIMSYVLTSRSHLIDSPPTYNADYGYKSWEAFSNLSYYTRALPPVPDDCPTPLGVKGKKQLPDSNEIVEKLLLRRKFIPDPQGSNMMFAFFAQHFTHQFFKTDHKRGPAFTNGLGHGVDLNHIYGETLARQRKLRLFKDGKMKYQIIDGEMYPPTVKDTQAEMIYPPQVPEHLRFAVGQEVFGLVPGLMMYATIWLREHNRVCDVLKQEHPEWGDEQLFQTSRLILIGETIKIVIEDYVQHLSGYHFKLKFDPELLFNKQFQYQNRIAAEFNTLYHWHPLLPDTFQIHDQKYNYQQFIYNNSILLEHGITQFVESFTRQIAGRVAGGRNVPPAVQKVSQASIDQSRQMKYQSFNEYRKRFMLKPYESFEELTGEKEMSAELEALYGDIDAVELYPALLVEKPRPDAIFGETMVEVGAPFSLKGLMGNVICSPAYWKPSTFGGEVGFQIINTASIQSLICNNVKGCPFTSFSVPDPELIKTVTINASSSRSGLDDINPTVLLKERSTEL

LPS-inflamed HepG2 cells [3] = details: 1/10 of LC50, LPS 1 µg/mL, 24 h, G3 relative to G2
Experimental: (§4) The levels of malondialdehyde (MDA), superoxide dismutase (SOD), catalase (CAT), and glutathione peroxidase (GPX) were quantified using commercial kits, following established protocols. […] Subsequently, the cells were exposed to 1 µg/mL of LPS for 24 h.
(§5) After this incubation period, the cells were rinsed with PBS, harvested from the plates, and suspended in 1 mL of ice-cold PBS (0.1 M, containing 0.05 mM EDTA). The cell suspension was homogenized, and the resulting homogenate was then subjected to centrifugation at 4000× g for 10 min at 4 °C. The obtained supernatants were preserved at −80 °C until they were ready for analysis. The protein concentration in each of the supernatant samples was determined using the Bradford assay.

LPS-inflamed MCF7 cells [4] = details: 1/10 of LC50, LPS 1 µg/mL, 24 h, G3 relative to G2
Experimental: as §4, §5

LPS-inflamed THLE2 cells [5] = details: 1/10 of LC50, LPS 1 µg/mL, 24 h, G3 compared to G2
Experimental: as §4, §5

LPS-inflamed HepG2 cells [6] = details: 1/10 of IC50, LPS 1 μg/mL, 24 h
Experimental: (§6) HepG2, MCF7, and THLE2 cells were initially seeded in a culture medium comprising DMEM supplemented with 10% FCS and 1% penicillin/streptomycin solution. These cultures were maintained at 37 °C in a 5% CO2 environment. The culture medium was refreshed twice a week, and when the cell cultures reached approximately 80% confluence, they were subcultured after trypsinization (0.05%, w/v). To mitigate mitogenic effects, the cells were pre-cultured in serum-free DMEM for a minimum of 4 h.
(§7) To induce inflammation, 1 μg/mL of LPS was added to the cultures, as previously described. Subsequently, the cells were allowed to incubate for a duration of 24 h.
(§8) Inflammatory marker levels, including TNFα, IL1b, COX-1, COX-2, and 5-LOX, were quantified following established procedures. In short, the cells were seeded at a density of 5 × 10^4 cells per well in flat-bottomed 96-well plates. […] The cells were then incubated at 37 °C for a period of 24 h.
(§9) After incubation, the culture medium was carefully collected into micro-centrifuge tubes and subjected to centrifugation at 1500 rpm for 10 min. The resulting supernatant was transferred to new micro-centrifuge tubes, and the levels of TNFα, IL1b, COX-1, COX-2, and 5-LOX were determined using an ELISA kit (TNFα, IL1b, COX-1, COX-2, and 5-LOX were determined using enzyme-linked immunoassay (ELISA) kits from Sigma Aldrich (Saint Louis, MO, USA), Abcam (Cambridge, UK), and Aviva Systems Biology (San Diego, CA, USA).

LPS-inflamed MCF7 cells [7] = details: 1/10 of IC50, LPS 1 μg/mL, 24 h, G3 vs G2
Experimental: as §6, §7, §8, §9

LPS-inflamed THLE2 cells [8] = details: 1/10 of IC50, LPS 1 μg/mL, 24 h, G3 vs G2
Experimental: as §6, §7, §8, §9

[9] = test system: MCF7 (human breast cancer) cells; test: Cell viability, MTT assay, MCF7; format: cell-based; details: 24 h
Experimental: as §1, §2, §3

LPS-inflamed HepG2 cells [10] = details: qPCR, β-actin reference, G3 vs G2
Experimental: as §6, §7
(§10) To isolate total RNA from HepG2, MCF7, and THLE2 cells, the RNeasy Mini kit was employed in accordance with the manufacturer’s instructions and established methods. Subsequently, cDNA was synthesized from […] of the total RNA using Quantiscript reverse transcriptase. The resulting cDNA served as a template for evaluating the relative expression of target gene mRNAs, with β-actin serving as an internal reference. To amplify the isolated cDNA, 2X Maxima SYBR Green/ROX qPCR Master Mix was used, following the manufacturer’s protocol, and specific gene primers designed for the purpose.
(§11) The reaction volume and qPCR thermal conditions were consistent with those previously described. Upon completion of the final cycle, the temperature was increased from 60 to 95 °C to generate a melt curve. The relative change in gene expression was presented as a fold change, determined using quantities at the critical threshold (Ct) and the 2^−∆∆Ct method (Table 5).

LPS-inflamed MCF7 cells [11] = details: qPCR, β-actin reference, G3 vs G2
Experimental: as §6, §7, §10, §11

LPS-inflamed THLE2 cells [12] = details: qPCR, β-actin reference, G3 vs G2
Experimental: as §6, §7, §10, §11

ovine COX-1 = ovine COX-1 (Ovis aries, UniProt P05979); test: biochemical
Chain of ovine COX-1 (P05979 25-600): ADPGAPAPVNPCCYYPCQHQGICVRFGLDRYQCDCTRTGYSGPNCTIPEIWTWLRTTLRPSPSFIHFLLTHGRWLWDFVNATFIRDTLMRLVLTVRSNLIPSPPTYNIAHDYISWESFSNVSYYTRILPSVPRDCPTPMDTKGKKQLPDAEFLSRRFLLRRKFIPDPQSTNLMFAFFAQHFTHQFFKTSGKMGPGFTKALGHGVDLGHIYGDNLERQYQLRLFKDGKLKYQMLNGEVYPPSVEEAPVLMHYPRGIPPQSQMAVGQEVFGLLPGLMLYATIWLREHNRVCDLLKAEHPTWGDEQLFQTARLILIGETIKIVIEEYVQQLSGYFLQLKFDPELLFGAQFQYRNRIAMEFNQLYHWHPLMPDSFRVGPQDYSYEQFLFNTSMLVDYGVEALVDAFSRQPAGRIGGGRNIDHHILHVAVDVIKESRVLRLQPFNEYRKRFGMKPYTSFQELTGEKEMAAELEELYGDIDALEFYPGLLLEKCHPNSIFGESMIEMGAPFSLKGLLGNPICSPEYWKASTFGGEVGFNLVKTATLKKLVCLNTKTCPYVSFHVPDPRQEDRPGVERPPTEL

COX-1/COX-2/5-LOX = details: from experimental IC50

- IC50 (rabbit 5-LOX): 16.7 µM
SMILES: Cc1ccc(-c2cc(C(F)(F)F)nn2-c2ccc(S(N)(=O)=O)cc2)cc1 [Celecoxib]

SMILES: N.N.[Cl][Pt][Cl] [Cisplatin]
- IC50 ([1]; 24 h): 2140 ± 95.3 µM
- IC50 ([2]; 24 h): 66.9 ± 1.8 µM

SMILES: Nc1ccc(S(=O)(=O)Nc2ncccn2)cc1 [Sulfadiazine]
- IC50 ([1]; Homo sapiens, THLE-2, 24 h): 4160 ± 90.5 µM
- IC50 (human recombinant COX-2): 5.27 µM
- IC50 ([2]; Homo sapiens, HepG2, 24 h): 246 ± 4.1 µM
- CAT levels (LPS-inflamed HepG2 cells [3]): increased levels
- GPX levels (LPS-inflamed HepG2 cells [3]): increased levels
- MDA levels (LPS-inflamed HepG2 cells [3]): significant augmentation
- CAT levels (LPS-inflamed MCF7 cells [4]): increased levels
- MDA levels (LPS-inflamed MCF7 cells [4]): significant augmentation
- CAT levels (LPS-inflamed THLE2 cells [5]): significant elevation
- GPX levels (LPS-inflamed THLE2 cells [5]): significant elevation
- MDA levels (LPS-inflamed THLE2 cells [5]): substantial reduction
- SOD levels (LPS-inflamed THLE2 cells [5]): significant elevation
- COX-2 level (LPS-inflamed HepG2 cells [6]; G3 vs G2): significantly reduced
- IL1b level (LPS-inflamed HepG2 cells [6]; G3 vs G2): significantly reduced
- TNFα level (LPS-inflamed HepG2 cells [6]; G3 vs untreated LPS-inflamed cells (G2)): significantly reduced
- COX-2 level (LPS-inflamed MCF7 cells [7]): significantly reduced
- IL1b level (LPS-inflamed MCF7 cells [7]): significantly reduced
- TNFα level (LPS-inflamed MCF7 cells [7]): significantly reduced
- 5-LOX level (LPS-inflamed THLE2 cells [8]): significantly reduced
- COX-2 level (LPS-inflamed THLE2 cells [8]): significantly reduced
- IL1b level (LPS-inflamed THLE2 cells [8]): significantly reduced
- TNFα level (LPS-inflamed THLE2 cells [8]): significantly reduced
- IC50 [9]: 216 ± 3.8 µM
- 5-LOX gene expression (LPS-inflamed HepG2 cells [10]): significantly blunted
- COX-1 gene expression (LPS-inflamed HepG2 cells [10]): significantly blunted
- COX-2 gene expression (LPS-inflamed HepG2 cells [10]): significantly blunted
- IL1b gene expression (LPS-inflamed HepG2 cells [10]): significantly blunted
- TNFα gene expression (LPS-inflamed HepG2 cells [10]): significantly blunted
- 5-LOX gene expression (LPS-inflamed MCF7 cells [11]): significantly blunted
- COX-1 gene expression (LPS-inflamed MCF7 cells [11]): significantly blunted
- COX-2 gene expression (LPS-inflamed MCF7 cells [11]): significantly blunted
- IL1b gene expression (LPS-inflamed MCF7 cells [11]): significantly blunted
- TNFα gene expression (LPS-inflamed MCF7 cells [11]): significantly blunted
- 5-LOX gene expression (LPS-inflamed THLE2 cells [12]): significantly blunted
- COX-1 gene expression (LPS-inflamed THLE2 cells [12]): not significant
- COX-2 gene expression (LPS-inflamed THLE2 cells [12]): significantly blunted
- IL1b gene expression (LPS-inflamed THLE2 cells [12]): significantly blunted
- TNFα gene expression (LPS-inflamed THLE2 cells [12]): significantly blunted
- IC50 (rabbit 5-LOX): 19.1 µM
- IC50 (ovine COX-1): 18.4 µM
- experimental 5-LOX/COX-1 selectivity (COX-1/COX-2/5-LOX): 1
- experimental COX-2/COX-1 selectivity (COX-1/COX-2/5-LOX): 3.6
